For experiment [1], the system named is rat embryonic hippocampal neurons. Description: Tracer uptake in primary rat hippocampal neurons. Type of experiment: cell-based.
Description: (§1) Finally, we evaluated whether tracer (11) is applicable in primary cells endogenously expressing OTR.
(§2) Primary UtSMC and hippocampal neuronal cultures.
(§3) Muscle Cell Basal Medium 2 (PromoCell), including supplements (PromoCell) and P/S (Gibco) at 37°C and 5%
(§4) CO2. Cells were trypsinized with 0.1% Trypsin/EDTA (Gibco) and plated on glass -bottom 96-well plates (CellVis)
(§5) at a density of 10,000 cells/well in full growth medium. The next day, cells were stimulated with tracer ( 11), OTA ,
(§6) dissociated with flame -polishe d Pasteur pipettes in Hank’s balanced salt solution (HBSS, Gibco). Tissue pieces
(§7) were subsequently enzymatically dissociated with 0.1% Trypsin/EDTA (Gibco) in Neurobasal A (NBA, Gibco)
(§8) containing 1,000U/mL DNase (Sigma) for 5 min at 37°C. Cells were triturated with flamed Pasteur pipettes,
(§9) filtered through a 40 µm nylon mesh ( Thermo Fisher Scientific ), centrifuged at 200 g for 5 min, and washed up to
(§10) three times in NBA containing P/S (Gibco), GlutaMax (Gibco) , and B27 supplement (Gibco). Cells were plated at
(§11) 20,000 cells/well on PDL -coated (Sigma) glass -bottom black 96 -well microscopy plates (Cellvis) and grown at
(§12) 37°C with 5% CO 2. Half of the medium was replaced every 3 -4 days. After 13 -14 days in vitro , neuronal cultures
(§13) were exposed to 100 nM tracer ( 11) for one hour, with or without 30-min pretreatment with 10 µM of the peptide
antagonist OTA. […]
Another experiment has as its target T1, hV2R (Homo sapiens, UniProt P30518).
T1 construct: expressed in transfected cells; membrane preparation
Description: Radioligand displacement and saturation binding, membranes of HEK293 cells stably expressing hV2R, [3H]-VP. For orientation: Displacement assays read how much labelled ligand stays bound in the presence of the test substance.

In another experiment the target is T2, hV1bR (Homo sapiens, UniProt P47901).
T2 construct: expressed in transfected cells; membrane preparation
T2 sequence (P47901 1-424): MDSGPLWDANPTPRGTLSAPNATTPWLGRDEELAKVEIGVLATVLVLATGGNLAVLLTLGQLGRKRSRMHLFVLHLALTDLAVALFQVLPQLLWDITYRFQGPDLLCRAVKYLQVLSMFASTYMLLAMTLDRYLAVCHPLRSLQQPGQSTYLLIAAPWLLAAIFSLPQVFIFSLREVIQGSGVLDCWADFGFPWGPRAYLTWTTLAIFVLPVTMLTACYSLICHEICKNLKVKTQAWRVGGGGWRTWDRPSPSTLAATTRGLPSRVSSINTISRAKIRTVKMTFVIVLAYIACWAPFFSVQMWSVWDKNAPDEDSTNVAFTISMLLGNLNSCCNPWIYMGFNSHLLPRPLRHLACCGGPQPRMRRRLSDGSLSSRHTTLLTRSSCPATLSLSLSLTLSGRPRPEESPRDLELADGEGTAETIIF
Description: Radioligand displacement and saturation binding, membranes of HEK293 cells stably expressing hV1bR, [3H]-VP.

The target in the next experiment is T3, hOTR-GFP in HEK293 cells (Homo sapiens, UniProt P30559).
T3 sequence (P30559 1-389): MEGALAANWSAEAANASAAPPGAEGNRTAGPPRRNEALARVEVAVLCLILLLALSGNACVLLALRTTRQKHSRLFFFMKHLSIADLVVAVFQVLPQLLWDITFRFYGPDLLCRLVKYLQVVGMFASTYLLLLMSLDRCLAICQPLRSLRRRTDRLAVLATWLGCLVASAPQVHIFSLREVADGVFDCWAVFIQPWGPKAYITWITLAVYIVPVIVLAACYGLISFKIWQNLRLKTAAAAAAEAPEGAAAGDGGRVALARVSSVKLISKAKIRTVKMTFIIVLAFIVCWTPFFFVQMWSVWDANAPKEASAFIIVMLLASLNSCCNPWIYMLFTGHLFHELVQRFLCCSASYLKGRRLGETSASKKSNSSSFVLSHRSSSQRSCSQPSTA
Kind of experiment: hOTR-GFP internalization and tracer uptake, confocal microscopy after fixation/ICC. Type of experiment: cell-based. Set-up: expressed in transfected cells.

Another experiment addresses T4, hV1aR (Homo sapiens, UniProt P37288).
T4 construct: expressed in transfected cells
Kind of experiment: Radioligand displacement and saturation binding, membranes of HEK293 cells stably expressing hV1aR, [3H]-VP.

The target of the next experiment is T5, hOTR (Homo sapiens, UniProt P30559).
T5 construct: expressed in transfected cells
T5 sequence (P30559 1-389): T3 sequence (P30559 1-389)
Kind of experiment: Radioligand displacement and saturation binding, membranes of HEK293 cells stably expressing hOTR, [3H]-OT. The conditions noted are these: for Ki: [3H]-OT, mean ± SD, duplicates, at least three independent experiments.

The target of the next experiment is T6, mV1bR (Mus musculus, UniProt Q9WU02).
T6 construct: expressed in transfected cells; host or cells: wild-type HEK293, transient transfection (jetPRIME); membrane preparation
T6 sequence (Q9WU02 1-421): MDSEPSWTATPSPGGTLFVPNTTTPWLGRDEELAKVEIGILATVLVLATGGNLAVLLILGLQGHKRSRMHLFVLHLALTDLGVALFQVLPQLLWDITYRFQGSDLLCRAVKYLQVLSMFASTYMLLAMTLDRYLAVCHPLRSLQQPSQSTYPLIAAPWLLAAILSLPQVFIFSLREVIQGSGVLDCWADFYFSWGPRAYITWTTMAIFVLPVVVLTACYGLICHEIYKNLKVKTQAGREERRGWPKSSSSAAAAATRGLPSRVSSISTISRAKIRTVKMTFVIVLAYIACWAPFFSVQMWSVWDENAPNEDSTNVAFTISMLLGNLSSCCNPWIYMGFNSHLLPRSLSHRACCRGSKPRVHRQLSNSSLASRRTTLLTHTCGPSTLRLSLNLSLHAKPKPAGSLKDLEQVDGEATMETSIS
Description: Radioligand displacement, membranes of HEK293 cells transiently expressing mV1bR. The format is binding. The note with it: murine receptor, transient expression; mean ± SD.

Experiment [2] has as its system mouse embryonic hippocampal neurons. Description: Tracer uptake in primary mouse hippocampal neurons. The format is cell-based. The conditions noted are these: 10 µM, 30 min.
Description: as §1, §2, §3, §4, §5, §6, §7, §8, §9, §10, §11, §12, §13
antagonist OTA. […]
Experiment [3] concerns human uterine smooth muscle cells (UtSMC). Description: Stimulation of primary human uterine smooth muscle cells (UtSMC). Type of experiment: cell-based.
Description: as §1, §2, §3, §4, §5, §6, §7, §8, §9, §10, §11, §12, §13
antagonist OTA. In parallel, neurons were exposed to 100 nM of the scrambled tracer SCR for 1 h. After
stimulations, cells were washed with ice-cold PBS and fixed with 4% paraformaldehyde for 30 min on ice. Next,
washed again in PBS, and directly imaged on a Zeiss LSM880 confocal microscope.
A further experiment concerns the target T7, mV1aR (Mus musculus, UniProt Q62463).
T7 construct: expressed in transfected cells; host or cells: wild-type HEK293, transient transfection (jetPRIME); membrane preparation
Kind of experiment: Radioligand displacement, membranes of HEK293 cells transiently expressing mV1aR. The format is binding. The conditions noted are these: murine receptor, transient expression; mean ± SD.

The target of the next experiment is T8, mOTR (Mus musculus, UniProt P97926).
T8 construct: expressed in transfected cells; host or cells: wild-type HEK293, transient transfection (jetPRIME); membrane preparation
T8 sequence (P97926 1-388): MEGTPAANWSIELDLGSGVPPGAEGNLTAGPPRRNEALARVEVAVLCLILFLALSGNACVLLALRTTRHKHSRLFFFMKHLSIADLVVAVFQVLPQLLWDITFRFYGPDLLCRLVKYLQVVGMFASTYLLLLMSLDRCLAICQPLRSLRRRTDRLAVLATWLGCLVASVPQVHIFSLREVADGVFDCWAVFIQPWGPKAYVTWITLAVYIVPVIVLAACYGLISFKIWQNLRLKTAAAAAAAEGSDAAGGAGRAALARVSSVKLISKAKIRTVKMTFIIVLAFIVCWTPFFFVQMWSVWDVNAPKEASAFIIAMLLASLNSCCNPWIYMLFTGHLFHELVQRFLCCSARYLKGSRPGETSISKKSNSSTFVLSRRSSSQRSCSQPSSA
Kind of experiment: Radioligand displacement, membranes of HEK293 cells transiently expressing mOTR. Type of experiment: binding, murine.

The next experiment deals with T9, mV2R (Mus musculus, UniProt O88721).
T9 construct: expressed in transfected cells; host or cells: wild-type HEK293, transient transfection (jetPRIME); membrane preparation
Description: Radioligand displacement, membranes of HEK293 cells transiently expressing mV2R. The format is binding. The note with it: murine receptor, transient expression; mean ± SD.

In experiment [4] the test system is parent HEK293 cells lacking hOTR. The note with it: 100 nM.
The test system of experiment [5] is CREB phosphorylation via hOTR-GFP. Kind of experiment: In vitro phosphorylation assay (pCREB) in hOTR-GFP HEK293 cells. Type of experiment: cell-based, human. The conditions noted are these: range 1 nM to 1 µM.

The source of these data is publication PMC12603982 (Angewandte Chemie (International Ed. in English), 2025).

Where two headings read alike, the source gives them in different places. Starred links: 1 amine or outer side, 2 acyl side, 3 side chain; linkers in the order of their positions; H or OH if unused. Positions of bridges follow the written chain, without caps; N, C: chain ends. Non-standard residues stand in square brackets, D forms with d. Residues, ends and D or L forms follow the SMILES beside them. Groups on a side chain read outwards from the residue. *: point of attachment. X3 = CCN1C(=CC=CC=CC2=[N+](CCCCCC(=O)*)c3ccc(S(=O)(=O)[O-])cc3C2(C)C)C(C)(C)c2cc(S(=O)(=O)O)ccc21; X1 = CCN1C(=CC=CC2=[N+](CCCCCC(=O)*)c3ccc(S(=O)(=O)O)cc3C2(C)C)C(C)(C)c2cc(S(=O)(=O)[O-])ccc21; d(εLys) = N[C@H](CCCCN[*:1])C(=O)[*:2]; X2 = O=C(CC1(S[*:2])CCCCC1)[*:1]; PEG5 = NCCOCCOCCOCCOCCOCCC(=O)O; Orn = NCCC[C@H](N)C(=O)O; Mpa = O=C(O)CCS

T4 sequence (P37288 whole entry): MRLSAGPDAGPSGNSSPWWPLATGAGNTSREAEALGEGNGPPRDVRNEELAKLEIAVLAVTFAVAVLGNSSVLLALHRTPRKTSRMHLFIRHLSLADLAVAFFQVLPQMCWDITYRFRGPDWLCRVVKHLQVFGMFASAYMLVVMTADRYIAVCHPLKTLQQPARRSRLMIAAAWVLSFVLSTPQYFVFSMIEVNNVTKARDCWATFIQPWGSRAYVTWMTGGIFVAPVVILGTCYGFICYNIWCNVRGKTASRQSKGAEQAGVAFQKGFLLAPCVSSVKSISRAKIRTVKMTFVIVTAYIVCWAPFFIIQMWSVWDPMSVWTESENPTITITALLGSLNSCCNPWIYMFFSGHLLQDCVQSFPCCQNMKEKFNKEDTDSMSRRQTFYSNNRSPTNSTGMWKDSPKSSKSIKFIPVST
T1 sequence (P30518 whole entry): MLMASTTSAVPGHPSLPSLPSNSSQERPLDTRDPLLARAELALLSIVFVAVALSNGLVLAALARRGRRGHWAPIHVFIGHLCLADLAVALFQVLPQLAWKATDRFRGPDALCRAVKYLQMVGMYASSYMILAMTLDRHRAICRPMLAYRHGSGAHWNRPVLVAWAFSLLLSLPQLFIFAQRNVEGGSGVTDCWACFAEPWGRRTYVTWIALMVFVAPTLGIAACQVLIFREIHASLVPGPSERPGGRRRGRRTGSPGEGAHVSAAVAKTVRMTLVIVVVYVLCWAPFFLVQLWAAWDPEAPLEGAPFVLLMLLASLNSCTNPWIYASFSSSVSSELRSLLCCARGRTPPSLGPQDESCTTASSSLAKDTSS
T7 sequence (Q62463 whole entry): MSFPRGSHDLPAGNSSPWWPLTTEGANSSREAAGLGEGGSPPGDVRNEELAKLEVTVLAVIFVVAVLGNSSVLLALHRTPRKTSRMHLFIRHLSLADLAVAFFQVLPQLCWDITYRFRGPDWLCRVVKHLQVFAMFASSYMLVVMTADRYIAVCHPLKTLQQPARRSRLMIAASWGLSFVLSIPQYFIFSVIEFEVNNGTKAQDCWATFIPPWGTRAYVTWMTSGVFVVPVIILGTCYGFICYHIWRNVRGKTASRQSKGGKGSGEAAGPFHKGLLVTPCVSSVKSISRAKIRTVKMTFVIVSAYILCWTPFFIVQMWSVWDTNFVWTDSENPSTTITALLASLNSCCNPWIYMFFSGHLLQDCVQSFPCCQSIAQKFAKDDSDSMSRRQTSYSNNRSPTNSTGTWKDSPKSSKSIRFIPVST
T9 sequence (O88721 whole entry): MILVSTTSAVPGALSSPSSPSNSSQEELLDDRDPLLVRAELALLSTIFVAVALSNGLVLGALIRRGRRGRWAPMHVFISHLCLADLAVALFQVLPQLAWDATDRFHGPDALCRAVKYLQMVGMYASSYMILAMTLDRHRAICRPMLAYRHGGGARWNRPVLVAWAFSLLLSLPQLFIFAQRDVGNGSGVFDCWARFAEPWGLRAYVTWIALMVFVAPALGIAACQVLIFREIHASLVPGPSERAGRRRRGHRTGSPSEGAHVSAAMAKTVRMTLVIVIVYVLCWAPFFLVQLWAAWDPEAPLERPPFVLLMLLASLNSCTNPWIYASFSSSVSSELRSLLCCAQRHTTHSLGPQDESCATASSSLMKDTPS
Description for hOTR-GFP in HEK293 cells: To validate the application scope of our tracers for biological systems and post‐hoc imaging, we used HEK293 cells stably overexpressing human OTR or V1aR, tagged with a C‐terminal fused green fluorescent protein to visualize receptor trafficking (hOTR‐GFP or hV1aR‐GFP, respectively).
subsequently washed with PBS and processed for immunocytochemistry.
Immunocytochemistry and imaging. Unspecific protein binding was quenched with 5% normal donkey serum
(Jackson ImmunoResearch), 2% bovine serum albumin (Sigma-Aldrich, Merck), and 0.2% Triton X-100 (Sigma-
Aldrich, Merck) in PBS. Next, cells were exposed to primary antibody cocktails containing FITC-conjugated goat-
anti-GF (1:2000, Sigma-Aldrich, Merck) and mouse pCREB (1:300, Sigma-Aldrich, Merck) in PBS with 2%
normal donkey serum, 0.1% BSA, and 0.2% Triton X-100 overnight at 4°C. After three PBS washing steps, wells
were incubated with secondary antibody cocktails (1:400, Jackson Immuno Research) containing suitable
were mounted with glycerol gelatin (Sigma-Aldrich, Merck) and imaged on a Zeiss LSM 780/880 confocal
microscope (Zeiss). Images were analyzed and equally contrasted for visualization with ZEN Pro (Zeiss) and
Description for hV1aR: (§14) Membrane preparation for radioligand assays. HEK293 cells were used for stable expression of GFP-tagged
(§15) human OTR, V1aR, V1bR, and V2R isoforms and transient expression of murine OTR, V1aR, V1bR, and V2R
(§16) isoforms. Cell culture work was performed under sterile conditions with DMEM high glucose containing 10%
(§17) FBS, and 50 U/mL P/S. Cells were cultured in 10 cm diameter cell culture dishes at 37°C in a humidified
(§18) atmosphere with 5% CO2, and cells were passaged at 70-90% confluency.
(§19) medium of stable cell lines at 0.5 mg/mL to sustain selection pressure, and cells were harvested at 90% confluency
(§20) for membrane preparation. For transient expression of murine receptors, 60% confluent wild-type HEK293 cells
(§21) were transfected using the jetPRIME transfection reagent according to the manufacturer’s protocol and harvested
(§22) 48 h post-transfection. For membrane preparation, cells were washed with ice-cold PBS pH 7.4, scraped into fresh
(§23) PBS on ice, and centrifuged at 4°C and 178 g for 10 min. The pellet was resuspended in a TRIS buffer solution
(§24) ice-cold water bath sonicator. The obtained solution was centrifuged for 20 min at 54,192 g and 4°C. The obtained […]
Specific binding was determined by […]
(§25) assessed Kd values of radiotracers and by fitting the data to a three -parameter logistic Hill equation and applying […]
(§26) concentration was determined using a Tri -Carb liquid scintillation analyzer. […]
Description for hV1bR: as §14, §15, §16, §17, §18, §19, §20, §21, §22, §23, §24
Specific binding was determined by […]
as §25, §26
Description for hV2R: as §14, §15, §16, §17, §18, §19, §20, §21, §22, §23, §24
Specific binding was determined by […]
as §25, §26
Description for mOTR: as §14, §15, §16, §17, §18, §19, §20, §21, §22, §23
ice-cold water bath sonicator. The obtained solution was centrifuged for 20 min at 54,192 g and 4°C. The obtained
pellet was resuspended in TRIS buffer without protease inhibitors, homogenized with an ultrasonicator, aliquoted,
and stored at -80°C until further use. A BCA assay was used to determine the protein concentration of the
Radioligand displacement and saturation experiments. Assay solutions consisting of competing ligand,
radioligand, and membrane preparation were incubated for 1 h at 37°C. Standard binding buffer solution (50 mM
TRIS, 5 mM MgCl2, 0.1% BSA, pH 7.4) was used to prepare all dilutions; the final assay volume was 200 µL.
concentrations were 8 μg/vial for hOTR, 5 μg/vial for hV1aR, and 3 μg/vial for hV1bR and hV2R, respectively , and
4 μg/vial for mOTR, 1.5 μg/vial for m V1aR, 3 μg/vial for mV 1bR, and 10 μg/vial for mV 2R. To assess non-specific
Specific binding was determined by
subtraction of the non-specific binding from the total binding. In radioligand displacement experiments, semi -
logarithmically spaced concentrations of respective test ligands were applied to determine K i values based on
assessed Kd values of radiotracers and by fitting the data to a three -parameter logistic Hill equation and applying
the Cheng and Prusoff approximation. 10 In case of human receptors from stable cell lines, Kd and Bmax values were
In case of murine receptors from transient
was performed using GraphPad Prism (version 9.5.1) . After incubation, membranes were filtered and washed on
a Skatron Cell Harvester using polyethyleneimine -coated glass fiber filters (type B, soaked in 0.1% aqueous
1 mM MgCl2, pH 7.4, 4°C). […]
as §26
Description for mV1aR: as §14, §15, §16, §17, §18, §19, §20, §21, §22, §23
(§27) The obtained solution was centrifuged for 20 min at 54,192 g and 4°C. The obtained […]
as §25, §26
Description for mV1bR: as §14, §15, §16, §17, §18, §19, §20, §21, §22, §23, §27, §25, §26
Description for mV2R: as §14, §15, §16, §17, §18, §19, §20, §21, §22, §23, §27, §25, §26

A word on the Ki: it is the dissociation constant of the complex between target and ligand, obtained from inhibition or displacement. Turning to `CC[C@H](C)[C@@H]1NC(=O)CCSSC[C@@H](C(=O)N2CCC[C@H]2C(=O)N[C@@H](CCCNC(=O)[C@@H](CC(=O)O)NC(=O)CCOCCOCCOCCOCCOCCNC(=O)[C@H](N)CCCCNC(=O)CCCCC[N+]2=C(C=CC=C3N(CC)c4ccc(S(=O)(=O)[O-])cc4C3(C)C)C(C)(C)c3cc(S(=O)(=O)O)ccc32)C(=O)NCC(N)=O)NC(=O)[C@H](CCC(N)=O)NC(=O)[C@H](Cc2ccc(O)cc2)NC(=O)[C@H](CC(N)=O)NC1=O` [Scrambled tracer (SCR), dCINYQCP(Orn)G‐[d‐PEG5‐k^ε‐Cy3s]^8] ([Mpa]INYQCP[Orn]([dD-PEG5-d(εLys)-X1])G-NH2; disulfide 1-6), in experiment [1] (100 nM, 1 h, E17.5 neurons cultured 14 days), the “Tracer uptake in rat hippocampal neurons” value was “not taken up by neurons”. Further, the inhibition constant (Ki) on hV2R, at hV1bR, on hV1aR and at hOTR (Ki hOTR) was over 10 µM in each case. Also, the hOTR-GFP internalization result on hOTR-GFP in HEK293 cells (100 nM) is on record as “did not induce hOTR‐GFP internalization or accumulate in the cell cytoplasm”.

For the compound `CC[C@H](C)[C@@H]1NC(=O)[C@@H](Cc2ccc(O)cc2)NC(=O)CC2(CCCCC2)SSC[C@@H](C(=O)N2CCC[C@H]2C(=O)N[C@@H](CCCN)C(=O)O)NC(=O)[C@H](CC(N)=O)NC(=O)[C@H]([C@@H](C)O)NC1=O` [OTR antagonist (OTA), reference compound] ([dY]ITNCP[Orn]-OH; linker N-5 via X2), the inhibition constant Ki at mV1bR is over 10 µM; on hV2R (read-out: Ki hV2R), over 10 µM; on hV1bR (read-out: Ki hV1bR) it was over 10 µM; on mV1aR, over 10 µM; at hV1aR (read-out: Ki hV1aR), 0.0458 ± 0.0119 µM; on mOTR (murine receptor, transient expression, mean ± SD), 0.0059 ± 0.0017 µM. In addition, the Ki turned out to be 3.01 ± 0.346 µM on mV2R and 0.0449 ± 0.0088 µM on hOTR (read-out: Ki hOTR). Moreover, the “Effect of OTA pretreatment on tracer (11) uptake in rat hippocampal neurons” value in experiment [1] (10 µM, 30 min) was “prevented compound (11) internalization”. Also, the “Effect of OTA pretreatment on tracer (11) uptake in mouse hippocampal neurons” value in [2] is recorded as “completely inhibited the uptake”. For the same compound, the “Effect of OTA pretreatment on tracer (11) in UtSMC” value in [3] is “prevented tracer uptake as well as cellular contractions and membrane blebbing”. Moreover, the “Effect of antagonist pretreatment on hOTR-GFP internalization and accumulation of tracers (3) and (7)” value at hOTR-GFP in HEK293 cells (10 µM, 30 min before 1 h stimulation with 100 nM tracer) is “prevented hOTR‐GFP internalization and cytoplasmic accumulation”. The “Effect of antagonist pretreatment on tracer (11) uptake” value on hOTR-GFP in HEK293 cells (10 µM, 30 min pretreatment) was “completely prevented tracer (11) uptake”. Besides, the “Effect of antagonist pretreatment on tracer (13) uptake and GFP internalization” value on hOTR-GFP in HEK293 cells (10 µM, 30 min pretreatment, tracer (13) up to 100 nM) was “completely prevented”. The “Selectivity ratio mV1aR/mOTR” value on mOTR (Ki ratio) was over 1500. Further, the “Selectivity ratio mV1bR/mOTR” value at mOTR (Ki ratio) was over 1500. Also, at mOTR (Ki ratio), the “Selectivity ratio mV2R/mOTR” value is given as 510. Also, the “Selectivity ratio hV1aR/hOTR” value at hOTR (Ki ratio, VPR affinity divided by OTR affinity) is 1.02.

As to `CC[C@H](C)[C@@H]1NC(=O)[C@H](Cc2ccc(O)cc2)NC(=O)CCSSC[C@@H](C(=O)N2CCC[C@H]2C(=O)N[C@@H](CCCNC(=O)[C@H](N)CCCCNC(=O)[C@H](N)CCCCNC(=O)CCCCC[N+]2=C(C=CC=CC=C3N(CC)c4ccc(S(=O)(=O)O)cc4C3(C)C)C(C)(C)c3cc(S(=O)(=O)[O-])ccc32)C(=O)NCC(N)=O)NC(=O)[C@H](CC(N)=O)NC(=O)[C@H](CCC(N)=O)NC1=O` [Compound 5] ([Mpa]YIQNCP[Orn]([d(εLys)-d(εLys)-X3])G-NH2; disulfide 1-6), the “Concentration from which tracer accumulation and GFP internalization were observed” value on hOTR-GFP in HEK293 cells (hOTR-GFP HEK293 cells) is at least 10 nM. Moreover, in [4], the “Internalization in parent HEK293 cells” value was “nor was it internalized into the cytoplasm” and the “pCREB induction in parent HEK293 cells” value is listed as “did not affect pCREB induction”. Besides, the “Concentration from which CREB phosphorylation was observed” value in experiment [5] is reported as at least 10 nM.
